{
  "source": "paper PMC4620497",
  "about": "(Scientific Reports, 2015)",
  "key": {"NEK11": {"target": "T1, NEK11 (Homo sapiens, UniProt Q8NG66)", "T1 construct": "purchased DiscoveRx KINOMEscan (Ambit Biosciences)", "experiment": "KINOMEscan panel screen", "format": "binding", "conditions": "read-out: Percent Control(%)"}, "PIP5K2C": {"target": "T2, PIP5K2C (Homo sapiens, UniProt Q8TBX8)", "T2 construct": "purchased DiscoveRx KINOMEscan (Ambit Biosciences)", "experiment": "KINOMEscan panel screen", "format": "binding", "conditions": "read-out: Percent Control(%)"}, "MST1R": {"target": "T3, MST1R (Homo sapiens, UniProt Q04912)", "T3 construct": "purchased DiscoveRx KINOMEscan (Ambit Biosciences)", "experiment": "KINOMEscan panel screen", "format": "binding", "conditions": "read-out: Percent Control(%)"}, "KIT": {"target": "T4, KIT (Homo sapiens, UniProt P10721)", "T4 construct": "DNA tag (qPCR read-out); purchased Ambit Biosciences (KINOMEscan service)", "T4 sequence (P10721 26-976)": "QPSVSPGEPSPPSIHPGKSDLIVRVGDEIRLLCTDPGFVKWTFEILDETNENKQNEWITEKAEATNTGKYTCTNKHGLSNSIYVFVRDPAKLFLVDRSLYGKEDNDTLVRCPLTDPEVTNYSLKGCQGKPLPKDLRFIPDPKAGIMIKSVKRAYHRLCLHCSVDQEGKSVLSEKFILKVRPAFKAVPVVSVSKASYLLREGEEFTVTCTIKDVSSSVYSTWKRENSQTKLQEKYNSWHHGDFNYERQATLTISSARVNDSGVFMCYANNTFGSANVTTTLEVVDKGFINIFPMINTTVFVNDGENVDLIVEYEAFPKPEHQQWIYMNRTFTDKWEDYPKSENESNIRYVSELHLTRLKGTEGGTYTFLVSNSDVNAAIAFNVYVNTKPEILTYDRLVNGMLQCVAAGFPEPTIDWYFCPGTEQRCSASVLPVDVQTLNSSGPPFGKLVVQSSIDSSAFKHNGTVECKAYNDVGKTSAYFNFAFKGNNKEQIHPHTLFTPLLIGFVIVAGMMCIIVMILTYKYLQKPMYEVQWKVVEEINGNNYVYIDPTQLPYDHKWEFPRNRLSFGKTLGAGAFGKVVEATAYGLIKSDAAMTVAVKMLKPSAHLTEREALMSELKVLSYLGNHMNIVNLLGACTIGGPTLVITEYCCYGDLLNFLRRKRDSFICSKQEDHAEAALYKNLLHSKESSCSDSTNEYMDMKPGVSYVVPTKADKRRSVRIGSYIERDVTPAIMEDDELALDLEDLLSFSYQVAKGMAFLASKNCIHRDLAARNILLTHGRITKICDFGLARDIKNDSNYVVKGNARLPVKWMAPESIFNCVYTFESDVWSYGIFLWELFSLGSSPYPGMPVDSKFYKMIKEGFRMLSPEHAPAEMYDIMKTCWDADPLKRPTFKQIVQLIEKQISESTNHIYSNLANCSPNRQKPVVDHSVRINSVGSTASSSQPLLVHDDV", "experiment": "KINOMEscan kinase binding assay (Kd)"}, "[1]": {"tested_on": "phosphorylation of FLT3 and STAT5 in MV4-11 tumors", "experiment": "FLT3 signaling in MV4-11 xenograft tumors (western blot)", "format": "in vivo, NOD-SCID mice", "conditions": "single oral dose 10 mg/kg", "procedure": "To examine the effects of SKLB-677 on FLT3 and Wnt/β-catenin signaling in vivo, the same MV4-11 xenograft model was used and MV4-11 tumors were harvested at specific time points (0 h, 4 h, 6 h, 8 h, 12 h, and 24 h) after the treatment of 10 mg/kg SKLB-677 (3 mice for each time point). Western blot assays and real-time qPCR assays were conducted on the harvested tumors.\nWestern blot analysis was performed as previously described. Whole protein lysates of tumor samples were collected by the abrading of tumors in liquid nitrogen. […] Quantitative analysis of the protein level was performed with NIH image analysis software, ImageJ (normalized relative to the vehicle control).\nFigure 5 In vivo effects of SKLB-677. […] The tumor volume and body weight were measured every 3 days during the treatment. […] Ki67 and TUNEL were detected with immunohistochemical. […] Tumors were harvested at the indicated time points, and the FLT3 signaling pathway was detected using western blot assays. […] (e) The same harvested tumors were detected using real-time qPCR assays to test the expression of AXIN2 and NKD1 (the target genes of Wnt/β-catenin pathway). […] The plasma concentrations were determined using liquid–liquid extraction followed by high-performance liquid chromatography (HPLC) with tandem mass spectrometric detection."}, "PLC/PRF/5": {"tested_on": "PLC/PRF/5", "experiment": "MTT cell viability assay", "conditions": "Homo sapiens, PLC-PRF-5, 72 h"}, "CSNK2A2": {"target": "T5, CSNK2A2 (Homo sapiens, UniProt P19784)", "T5 construct": "purchased DiscoveRx KINOMEscan (Ambit Biosciences)", "experiment": "KINOMEscan panel screen", "format": "binding", "conditions": "read-out: Percent Control(%)"}, "SRC": {"target": "T6, SRC (Homo sapiens, UniProt P12931)", "T6 construct": "purchased DiscoveRx KINOMEscan (Ambit Biosciences)", "experiment": "KINOMEscan panel screen", "format": "binding", "conditions": "read-out: Percent Control(%)"}, "FGR": {"target": "T7, FGR (Homo sapiens, UniProt P09769)", "T7 construct": "purchased DiscoveRx KINOMEscan (Ambit Biosciences)", "experiment": "KINOMEscan panel screen", "format": "binding", "conditions": "read-out: Percent Control(%)"}, "AKT1": {"target": "T8, AKT1 (Homo sapiens, UniProt P31749)", "T8 construct": "purchased DiscoveRx KINOMEscan (Ambit Biosciences)", "experiment": "KINOMEscan panel screen", "format": "binding", "conditions": "read-out: Percent Control(%)"}, "MAK": {"target": "T9, MAK (Homo sapiens, UniProt P20794)", "T9 construct": "purchased DiscoveRx KINOMEscan (Ambit Biosciences)", "experiment": "KINOMEscan panel screen", "format": "binding", "conditions": "read-out: Percent Control(%)"}, "[2]": {"target": "T10, ABL1(Q252H)-phosphorylated (Homo sapiens, UniProt P00519, Q252H)", "T10 construct": "purchased DiscoveRx KINOMEscan (Ambit Biosciences)", "experiment": "KINOMEscan panel screen", "format": "binding", "conditions": "read-out: Percent Control(%)"}, "[3]": {"target": "T11, RSK2(Kin.Dom.2-C-terminal) (Homo sapiens, UniProt P51812)", "T11 construct": "RSK2(Kin.Dom.2-C-terminal); purchased DiscoveRx KINOMEscan (Ambit Biosciences)", "T11 sequence (P51812 422-679 limits assumed)": "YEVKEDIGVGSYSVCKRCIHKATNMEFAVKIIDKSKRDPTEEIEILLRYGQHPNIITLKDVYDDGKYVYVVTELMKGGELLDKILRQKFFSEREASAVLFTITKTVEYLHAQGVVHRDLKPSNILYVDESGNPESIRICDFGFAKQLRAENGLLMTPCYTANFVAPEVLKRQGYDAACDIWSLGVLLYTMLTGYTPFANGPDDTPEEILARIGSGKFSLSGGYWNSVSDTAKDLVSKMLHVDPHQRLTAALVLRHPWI", "experiment": "KINOMEscan panel screen", "format": "binding", "conditions": "read-out: Percent Control(%)"}, "DCAMKL1": {"target": "T12, DCAMKL1 (Homo sapiens, UniProt O15075)", "T12 construct": "purchased DiscoveRx KINOMEscan (Ambit Biosciences)", "T12 sequence (O15075 whole entry)": "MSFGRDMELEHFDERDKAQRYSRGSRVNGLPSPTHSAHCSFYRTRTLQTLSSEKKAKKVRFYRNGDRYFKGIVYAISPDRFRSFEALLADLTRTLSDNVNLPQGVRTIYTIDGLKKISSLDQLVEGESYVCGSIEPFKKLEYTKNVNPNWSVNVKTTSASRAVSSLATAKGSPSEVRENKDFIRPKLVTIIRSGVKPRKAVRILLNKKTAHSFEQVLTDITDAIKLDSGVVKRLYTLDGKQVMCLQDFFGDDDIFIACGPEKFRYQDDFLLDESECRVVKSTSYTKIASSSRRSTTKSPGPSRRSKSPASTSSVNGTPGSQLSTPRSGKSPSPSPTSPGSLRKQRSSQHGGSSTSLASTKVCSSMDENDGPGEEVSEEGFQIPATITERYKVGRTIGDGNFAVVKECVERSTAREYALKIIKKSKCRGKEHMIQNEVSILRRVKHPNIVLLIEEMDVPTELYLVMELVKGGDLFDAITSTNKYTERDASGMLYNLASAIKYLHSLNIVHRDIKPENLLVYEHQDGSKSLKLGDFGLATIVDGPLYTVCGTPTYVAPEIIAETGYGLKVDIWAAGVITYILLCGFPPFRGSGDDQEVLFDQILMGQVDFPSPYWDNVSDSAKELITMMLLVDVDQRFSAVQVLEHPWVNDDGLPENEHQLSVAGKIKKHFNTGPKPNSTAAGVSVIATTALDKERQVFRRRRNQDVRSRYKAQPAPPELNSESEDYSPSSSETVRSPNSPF", "experiment": "KINOMEscan panel screen", "format": "binding", "conditions": "read-out: Percent Control(%)"}, "TSSK1B": {"target": "T13, TSSK1B (Homo sapiens, UniProt Q9BXA7)", "T13 construct": "purchased DiscoveRx KINOMEscan (Ambit Biosciences)", "T13 sequence (Q9BXA7 whole entry)": "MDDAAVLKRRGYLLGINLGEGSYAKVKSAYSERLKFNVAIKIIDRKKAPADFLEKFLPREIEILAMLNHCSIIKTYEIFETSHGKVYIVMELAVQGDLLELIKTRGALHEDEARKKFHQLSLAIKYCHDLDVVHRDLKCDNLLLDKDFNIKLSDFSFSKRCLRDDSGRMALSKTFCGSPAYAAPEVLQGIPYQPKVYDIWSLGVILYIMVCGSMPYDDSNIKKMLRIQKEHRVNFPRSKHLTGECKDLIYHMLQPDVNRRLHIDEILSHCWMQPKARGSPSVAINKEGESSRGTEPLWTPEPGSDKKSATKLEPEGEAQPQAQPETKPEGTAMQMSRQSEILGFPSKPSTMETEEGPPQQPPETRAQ", "experiment": "KINOMEscan panel screen", "format": "binding", "conditions": "read-out: Percent Control(%)"}, "STK35": {"target": "T14, STK35 (Homo sapiens, UniProt Q8TDR2)", "T14 construct": "purchased DiscoveRx KINOMEscan (Ambit Biosciences)", "T14 sequence (Q8TDR2 whole entry)": "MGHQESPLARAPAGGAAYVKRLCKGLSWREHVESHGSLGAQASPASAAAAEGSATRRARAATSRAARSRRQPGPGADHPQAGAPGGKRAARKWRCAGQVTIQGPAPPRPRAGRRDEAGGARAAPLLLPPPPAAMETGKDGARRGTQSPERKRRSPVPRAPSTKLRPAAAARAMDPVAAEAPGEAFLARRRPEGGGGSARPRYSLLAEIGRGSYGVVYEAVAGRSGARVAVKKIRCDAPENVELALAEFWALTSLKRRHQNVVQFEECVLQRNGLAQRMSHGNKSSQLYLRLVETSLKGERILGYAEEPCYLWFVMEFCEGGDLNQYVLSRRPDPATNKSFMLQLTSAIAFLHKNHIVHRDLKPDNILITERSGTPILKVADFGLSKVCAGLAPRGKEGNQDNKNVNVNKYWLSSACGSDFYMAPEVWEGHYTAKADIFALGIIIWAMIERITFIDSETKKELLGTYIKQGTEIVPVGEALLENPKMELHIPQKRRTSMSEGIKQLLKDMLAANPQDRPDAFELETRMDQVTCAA", "experiment": "KINOMEscan panel screen", "format": "binding", "conditions": "read-out: Percent Control(%)"}, "PRKG1": {"target": "T15, PRKG1 (Homo sapiens, UniProt Q13976)", "T15 construct": "purchased DiscoveRx KINOMEscan (Ambit Biosciences)", "T15 sequence (Q13976 whole entry)": "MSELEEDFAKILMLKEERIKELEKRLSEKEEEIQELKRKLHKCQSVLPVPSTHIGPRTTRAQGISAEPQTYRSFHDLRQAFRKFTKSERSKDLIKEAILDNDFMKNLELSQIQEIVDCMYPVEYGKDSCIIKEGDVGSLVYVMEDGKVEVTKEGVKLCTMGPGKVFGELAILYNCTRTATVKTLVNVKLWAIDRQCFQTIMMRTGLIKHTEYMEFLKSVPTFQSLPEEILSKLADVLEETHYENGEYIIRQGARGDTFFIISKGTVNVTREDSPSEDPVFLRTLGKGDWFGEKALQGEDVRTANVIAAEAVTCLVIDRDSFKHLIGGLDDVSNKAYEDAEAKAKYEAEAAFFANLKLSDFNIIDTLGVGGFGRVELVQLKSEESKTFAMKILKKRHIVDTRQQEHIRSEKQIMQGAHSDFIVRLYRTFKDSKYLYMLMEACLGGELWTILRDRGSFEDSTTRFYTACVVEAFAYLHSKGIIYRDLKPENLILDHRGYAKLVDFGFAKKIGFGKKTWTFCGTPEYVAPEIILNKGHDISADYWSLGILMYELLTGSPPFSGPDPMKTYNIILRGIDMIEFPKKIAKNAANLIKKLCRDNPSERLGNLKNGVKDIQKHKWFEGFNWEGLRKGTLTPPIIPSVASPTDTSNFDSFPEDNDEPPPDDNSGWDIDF", "experiment": "KINOMEscan panel screen", "format": "binding", "conditions": "read-out: Percent Control(%)"}, "CDK2": {"target": "CDK2 (Homo sapiens, UniProt P24941)", "experiment": "KINOMEscan panel screen", "format": "binding", "conditions": "read-out: Percent Control(%)"}, "CDKL2": {"target": "T16, CDKL2 (Homo sapiens, UniProt Q92772)", "T16 construct": "purchased DiscoveRx KINOMEscan (Ambit Biosciences)", "T16 sequence (Q92772 whole entry)": "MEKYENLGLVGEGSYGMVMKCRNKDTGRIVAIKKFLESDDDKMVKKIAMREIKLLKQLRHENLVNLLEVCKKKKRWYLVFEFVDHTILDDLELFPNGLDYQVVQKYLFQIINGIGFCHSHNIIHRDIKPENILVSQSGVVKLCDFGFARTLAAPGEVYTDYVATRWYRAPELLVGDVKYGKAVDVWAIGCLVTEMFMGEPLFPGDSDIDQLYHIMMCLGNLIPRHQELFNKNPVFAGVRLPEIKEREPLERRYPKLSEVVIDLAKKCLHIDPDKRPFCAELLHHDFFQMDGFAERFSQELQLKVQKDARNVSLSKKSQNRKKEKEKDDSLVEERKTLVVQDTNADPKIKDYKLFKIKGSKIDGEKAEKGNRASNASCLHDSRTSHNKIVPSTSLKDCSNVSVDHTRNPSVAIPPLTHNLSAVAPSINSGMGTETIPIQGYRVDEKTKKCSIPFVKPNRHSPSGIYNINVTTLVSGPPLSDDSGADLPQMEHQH", "experiment": "KINOMEscan panel screen", "format": "binding", "conditions": "read-out: Percent Control(%)"}, "[4]": {"target": "T17, RSK1(Kin.Dom.1-N-terminal) (Homo sapiens, UniProt Q15418)", "T17 construct": "RSK1(Kin.Dom.1-N-terminal); purchased DiscoveRx KINOMEscan (Ambit Biosciences)", "T17 sequence (Q15418 62-321 limits assumed)": "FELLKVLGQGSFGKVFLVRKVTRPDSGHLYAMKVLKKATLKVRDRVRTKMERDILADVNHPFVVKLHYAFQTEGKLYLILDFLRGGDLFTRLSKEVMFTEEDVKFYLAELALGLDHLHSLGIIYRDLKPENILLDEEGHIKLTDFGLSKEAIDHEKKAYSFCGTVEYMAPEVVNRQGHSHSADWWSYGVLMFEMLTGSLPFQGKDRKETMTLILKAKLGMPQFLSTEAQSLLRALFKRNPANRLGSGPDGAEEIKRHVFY", "experiment": "KINOMEscan panel screen", "format": "binding", "conditions": "read-out: Percent Control(%)"}},
  "note": "pIC50, pKd: −log10 of the molar value.",
  "data": [
    {"smiles": "CC(C)(C)c1cc(NC(=O)Nc2ccc(Oc3ncnc4[nH]ncc34)c(F)c2)no1", "note": "[SKLB-677, 1-(4-(1H-pyrazolo[3,4-d]pyrimidin-4-yloxy)-3-fluorophenyl)-3-(5-tert-butylisoxazol-3-yl)urea]", "values": [
      {"measurement": "remaining binding at 10 µM", "setting": "NEK11", "value": 96, "unit": "%"},
      {"measurement": "remaining binding at 10 µM", "setting": "PIP5K2C", "value": 100, "unit": "%"},
      {"measurement": "remaining binding at 10 µM", "setting": "MST1R", "value": 42, "unit": "%"},
      {"measurement": "pKd", "setting": "KIT", "value": 8.51},
      {"measurement": "time for which the effects on p-FLT3 and p-STAT5 were maintained", "setting": "[1]", "value": "up to 24 h"},
      {"measurement": "phosphorylation of FLT3 and STAT5 in tumors", "setting": "[1]; 4 h posttreatment", "value": "nearly abolished"},
      {"measurement": "pIC50", "setting": "PLC/PRF/5", "value": "< 5.00"},
      {"measurement": "remaining binding at 10 µM", "setting": "CSNK2A2", "value": 71, "unit": "%"},
      {"measurement": "remaining binding at 10 µM", "setting": "SRC", "value": 9.2, "unit": "%"},
      {"measurement": "remaining binding at 10 µM", "setting": "FGR", "value": 9.4, "unit": "%"},
      {"measurement": "remaining binding at 10 µM", "setting": "AKT1", "value": 100, "unit": "%"},
      {"measurement": "remaining binding at 10 µM", "setting": "MAK", "value": 21, "unit": "%"},
      {"measurement": "remaining binding at 10 µM", "setting": "[2]", "value": 21, "unit": "%"},
      {"measurement": "remaining binding at 10 µM", "setting": "[3]", "value": 100, "unit": "%"},
      {"measurement": "remaining binding at 10 µM", "setting": "DCAMKL1", "value": 100, "unit": "%"},
      {"measurement": "remaining binding at 10 µM", "setting": "TSSK1B", "value": 100, "unit": "%"},
      {"measurement": "remaining binding at 10 µM", "setting": "STK35", "value": 0.95, "unit": "%"},
      {"measurement": "remaining binding at 10 µM", "setting": "PRKG1", "value": 86, "unit": "%"},
      {"measurement": "remaining binding at 10 µM", "setting": "CDK2", "value": 1.6, "unit": "%"},
      {"measurement": "remaining binding at 10 µM", "setting": "CDKL2", "value": 1.7, "unit": "%"},
      {"measurement": "remaining binding at 10 µM", "setting": "[4]", "value": 100, "unit": "%"}
    ]}
  ]
}
